The values that follow come from PubChem BioAssay (NCI).

Holding throughout (assay): NCI anticancer screen, dose series, 48 h
Assay [1] concerns LOX IMVI melanoma.
The subject of assay [2] is M14 melanoma.
The subject of assay [3] is MCF7 breast.
In assay [4] the test system is MOLT-4 leukemia.
The test system of assay [5] is NCI-H522 lung.
The subject of assay [6] is OVCAR-4 ovarian.
Assay [7] deals with SK-MEL-28 melanoma.
Assay [8] deals with SNB-75 CNS.

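Test compounds were applied to cells in 96-well plates for 48 hours at 5 doses. At the GI50, growth is halved. At the TGI there is no net growth.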

In the case of `C=C1CC[C@H]2C(C)=CC[C@H]3C(=C)C(=O)O[C@@H]3[C@@H]12`, the TGI in assay [1], in assay [2], in assay [3], in assay [4], in assay [5] and in assay [6] was over 100 µM each time. In addition, the TGI in assay [7] is over 100 µM.
As to `OCCN(CO)CO`, the TGI in assay [2], in assay [3], in assay [5], in assay [6], in assay [7] and in assay [8] was over 100 µM throughout.
Regarding `CSC1=Nc2c(c(C)c(-c3ccccc3)n2COC(CO)CO)C2=NC(=O)CC(C)N12` (stereo not given), the GI50 in assay [1], in assay [3], in assay [4], in assay [5], in assay [6] and in assay [7] was over 100 µM throughout. The GI50 in assay [8] was 85.3 µM. Moreover, the TGI in assay [1], in assay [3], in assay [4], in assay [5], in assay [6] and in assay [7] was over 100 µM throughout. In assay [8], the TGI was over 100 µM.
Regarding `CC[C@H]1OC(=O)[C@H](C)[C@@H](O[C@H]2C[C@@](C)(OC)[C@@H](O)[C@H](C)O2)[C@H](C)[C@@H](O[C@@H]2O[C@H](C)C[C@H](N(C)C)[C@H]2O)[C@](C)(OC)C/C(C)=C2/O[C@@]1(C)C=C2C`, the GI50 was 1.61 µM in assay [1]; 1.82 µM in assay [3]; 1.96 µM in assay [4]; 1.72 µM in assay [5]; 1.85 µM in assay [6]; 1.89 µM in assay [7]. In addition, in assay [8], the GI50 is 1.27 µM. For the same molecule, the TGI was 3.08 µM in assay [1]; 3.63 µM in assay [3]; 4.49 µM in assay [4]; 3.63 µM in assay [5]; 4.22 µM in assay [6]; 3.32 µM in assay [7]. This molecule also showed a TGI in assay [8] of 2.64 µM.
As to `COc1ccc(-c2c(N)noc2-c2cc(OC)c3c(c2)OCCO3)cc1`, the GI50 in assay [1] was 0.0451 µM; in assay [2], under 0.01 µM; in assay [3], under 0.01 µM; in assay [4], 0.0353 µM; in assay [6], 0.0847 µM; in assay [7], 0.026 µM. Besides, the GI50 in assay [8] was under 0.01 µM. In addition, the TGI in assay [1] is 24 µM; in assay [2] it was 0.048 µM; in assay [3], over 100 µM; in assay [4], 5.31 µM; in assay [6] it was over 100 µM; in assay [7], over 100 µM. Also, the TGI in assay [8] stood at 39 µM.
`CC(C)OP(=O)(O)c1ncc(-c2ccc(C(F)(F)F)cc2)c(NC2CCCCCC2)n1`: the GI50 in assay [2] is over 100 µM; in assay [3] it was over 100 µM; in assay [4], over 100 µM; in assay [5], 38.5 µM; in assay [6], 61.2 µM; in assay [7], over 100 µM. For the same molecule, the GI50 in assay [8] is over 100 µM. Also, the TGI in assay [2], in assay [3], in assay [4], in assay [5], in assay [6] and in assay [7] was over 100 µM each time. The same molecule registered a TGI in assay [8] of over 100 µM.
For `COc1cc(/C=C2\SC(N3CCCCC3)=NC2=O)ccc1OCCCCCCOc1ccc(/C=C2\SC(N3CCCCC3)=NC2=O)cc1OC`, the GI50 in assay [1] was 8.35 µM; in assay [2], 21.9 µM; in assay [3], 15.1 µM; in assay [4], 17.4 µM; in assay [5] it was 3.18 µM; in assay [7], 15.7 µM. Also, the GI50 in assay [8] was 2.34 µM. Moreover, the TGI in assay [1] is 35.7 µM; in assay [2], over 100 µM; in assay [3] it was 44.9 µM; in assay [4], over 100 µM; in assay [5], 22 µM; in assay [7], 43.9 µM. This molecule registered a TGI in assay [8] of 6.4 µM.
Take `CN(C)c1ccc(C(O)C2=CC(=O)c3ccccc3C2=O)cc1` (stereo not given): the GI50 in assay [2] was 15.4 µM; in assay [3], 4.7 µM; in assay [5], 2.82 µM; in assay [6], 4.51 µM. Further, the TGI in assay [2] is 29.4 µM; in assay [3] it was over 100 µM; in assay [5], 9.2 µM; in assay [6], over 100 µM.
As to `Nc1ccccc1C#Cc1ccccc1C#Cc1cccs1`, the GI50 was 14 µM in assay [1]; 17.4 µM in assay [2]; 32.4 µM in assay [4]; 18.4 µM in assay [5]; 31 µM in assay [6]; 15.7 µM in assay [7]. Further, the GI50 in assay [8] is 82.7 µM. Also, the TGI in assay [1] was 27.5 µM; in assay [2], 34.1 µM; in assay [4], over 100 µM; in assay [5] it was 49.1 µM; in assay [6] it was over 100 µM; in assay [7], 41 µM. This molecule also returned a TGI in assay [8] of over 100 µM.
Regarding `O=NNc1ccc(S(=O)(=O)c2ccc3ccccc3c2)cn1`, the TGI in assay [2], in assay [3], in assay [5], in assay [6], in assay [7] and in assay [8] was over 100 µM in each case.
`N#Cc1cc(S(=O)(=O)Nc2nc3cc(Cl)ccc3o2)c(SCc2ccccc2)cc1Cl`: the GI50 in assay [1] is 13.5 µM; in assay [2], 12.6 µM; in assay [3], 17.3 µM; in assay [4], 18.6 µM; in assay [5], 11.6 µM; in assay [6], 15.9 µM. Further, in assay [7], the GI50 is 12.8 µM. The TGI in assay [1] was 26.3 µM; in assay [2], 25.1 µM; in assay [3] it was 33.3 µM; in assay [4], 39 µM; in assay [5] it was 25 µM; in assay [6] it was 35.1 µM. Besides, in assay [7], the TGI worked out at 25.4 µM.
`OCC(O)C(O)C(O)C(O)c1nnc2c(-c3ccccc3)nc3ccccc3n12` (stereo not given): the GI50 in assay [1] is 51.5 µM; in assay [2] it was over 100 µM; in assay [3] it was 43.5 µM; in assay [5], 64.1 µM; in assay [6], 16 µM; in assay [7] it was over 100 µM. Also, in assay [8], the GI50 was over 100 µM. Also, the TGI in assay [1] is over 100 µM; in assay [2], over 100 µM; in assay [3], over 100 µM; in assay [5] it was over 100 µM; in assay [6] it was 96.3 µM; in assay [7], over 100 µM. In assay [8], this molecule registered a TGI of over 100 µM.
In the case of `O=CN1N=C(c2cccc(Nc3ccnc4cc(Cl)ccc34)c2)CC1c1ccc(Cl)cc1` (stereo not given), the GI50 is 1.56 µM in assay [1]; 1.04 µM in assay [2]; 0.81 µM in assay [3]; 1.92 µM in assay [4]; 0.798 µM in assay [5]; 4.13 µM in assay [6]. Besides, the GI50 in assay [7] was 5.63 µM. Further, the TGI in assay [1] was 10.3 µM; in assay [2] it was over 100 µM; in assay [3], over 100 µM; in assay [4], 80.3 µM; in assay [5], 70.1 µM; in assay [6], over 100 µM. The molecule also returned a TGI in assay [7] of over 100 µM.
In the case of `C#C[C@]1(O)CC[C@H]2[C@@H]3CC=C4c5nc(N)sc5CC[C@]4(C)[C@H]3CC[C@@]21C`, the GI50 in assay [1] was 1.92 µM; in assay [2], 2.75 µM; in assay [3], 3.54 µM; in assay [4], 2.18 µM; in assay [5] it was 2.52 µM; in assay [6] it was 13.2 µM. The GI50 in assay [7] is 1.9 µM. In addition, the TGI in assay [1] came out at 4.04 µM; in assay [2], 7.83 µM; in assay [3], 10.1 µM; in assay [4], 6.24 µM; in assay [5], 7.94 µM; in assay [6] it was 70.5 µM. Further, the TGI in assay [7] was 4.67 µM.
`Cc1cc(S(N)(=O)=O)c(S/C(=N\NS(=O)(=O)c2ccccc2)c2ccc(Cl)cc2)cc1Cl`: the GI50 in assay [1] is over 100 µM; in assay [2], 87.9 µM; in assay [3] it was 75.3 µM; in assay [4] it was 34.4 µM; in assay [5] it was 23.2 µM; in assay [6] it was over 100 µM. Also, the GI50 in assay [7] was over 100 µM. Further, the TGI in assay [1] was over 100 µM; in assay [2], over 100 µM; in assay [3], over 100 µM; in assay [4] it was over 100 µM; in assay [5], 87.7 µM; in assay [6], over 100 µM. Besides, the TGI in assay [7] was over 100 µM.
For `CCOC(=O)c1c(NC(=O)c2ccc(Cl)cc2)sc2c(CN(C)C)c(O)ccc12`, the GI50 in assay [1] was 4.73 µM; in assay [2], 2.24 µM; in assay [3], 7.57 µM; in assay [4], 4.11 µM; in assay [5], 21 µM; in assay [6] it was 9.85 µM. For the same molecule, in assay [8], the GI50 was 3.25 µM. Moreover, the TGI in assay [1] is 18.5 µM; in assay [2], 5.87 µM; in assay [3], over 100 µM; in assay [4] it was over 100 µM; in assay [5], over 100 µM; in assay [6], 71.4 µM. In assay [8], the TGI worked out at 19 µM.
As for `COc1ccc(-c2cc(/C=C/C(=O)c3ccc(N)cc3)[nH]n2)cc1`, the GI50 in assay [2] was 2.67 µM; in assay [3], 0.708 µM; in assay [4], 2.32 µM; in assay [5], 1.21 µM; in assay [6] it was 1.08 µM; in assay [7], 1.87 µM. Also, the GI50 in assay [8] was 2.25 µM. For the same molecule, the TGI in assay [2] worked out at 6.54 µM; in assay [3] it was 3.84 µM; in assay [4], 9.48 µM; in assay [5], 2.91 µM; in assay [6] it was 8.01 µM; in assay [7], 4.01 µM. The molecule also yielded a TGI in assay [8] of 11.4 µM.
Turning to `Cn1cnnc1[S-].[Au+].c1ccc([PH+](c2ccccc2)c2ccccc2)cc1`, the GI50 in assay [1] is 1.35 µM; in assay [2], 1.4 µM; in assay [7] it was 1.52 µM; in assay [8], 1.43 µM. Also, the TGI in assay [1] came to 2.71 µM; in assay [2] it was 2.99 µM; in assay [7], 2.91 µM; in assay [8] it was 2.74 µM.
On to `O=[N+]([O-])/C=C/c1ccc(Cl)cc1[N+](=O)[O-]`, for which the GI50 is 4.42 µM in assay [2]; 3.09 µM in assay [4]; 1.5 µM in assay [5]; 4.36 µM in assay [6]; 14 µM in assay [7]; 3.79 µM in assay [8]. Also, the TGI in assay [2] stood at 16.5 µM; in assay [4] it was 12.6 µM; in assay [5], 3.3 µM; in assay [6] it was 15 µM; in assay [7], 27.7 µM; in assay [8], 15.9 µM.
Turning to `COc1ccc(C)cc1NC(=S)C#N`, the TGI in assay [1], in assay [2], in assay [3], in assay [7] and in assay [8] was over 100 µM throughout.
Turning to `COc1ccc(-c2csc(Nc3cccc(-c4csc(C)n4)c3)n2)cc1`, the GI50 in assay [1] is 0.389 µM; in assay [2] it was 2.79 µM; in assay [3] it was 0.31 µM; in assay [4], 0.287 µM; in assay [5] it was 1.23 µM; in assay [7], 1.98 µM. Also, the TGI was 11.8 µM in assay [1]; 14.2 µM in assay [2]; over 50 µM in assay [3]; 7.11 µM in assay [4]; over 16.4 µM in assay [5]; over 12.1 µM in assay [7].
Regarding `CCCCCC[C@H]1C(=O)O[C@H](C)[C@H](NC(=O)c2cccc(NC=O)c2OC)C(=O)O[C@@H](C)[C@@H]1OC(=O)CCC` (tested in a mixture with another compound), the GI50 in assay [1] is 8.67 µM; in assay [2], 16 µM; in assay [3] it was 33.4 µM; in assay [4], 5.64 µM; in assay [5] it was 13 µM; in assay [6], 12.7 µM. Also, the GI50 in assay [7] is 16.2 µM. Moreover, the TGI in assay [1] was 23.8 µM; in assay [2], 38.3 µM; in assay [3] it was over 100 µM; in assay [4] it was 26.6 µM; in assay [5] it was 34.4 µM; in assay [6], 29 µM. This molecule returned a TGI in assay [7] of 33.3 µM.
